Experimental data taken from US11548875B2, “Inhibitor compounds for male contraception” (University of Washington, priority 2018, dated 2023).
Entries after “also recorded” stand apart in the source; their conditions may differ.

How the values were obtained:
[1] = system: New Zealand white rabbits; assay: Oral WIN 18,446 in rabbits: ejaculated sperm, testicular retinoic acid, serum testosterone; format: in vivo, rabbit
Source text: In 2011, it was discovered that WIN 18,446 suppresses spermatogenesis by inhibiting testicular retinoic acid biosynthesis.
All animals were azoospermic between week 16 of treatment and week 8 of recovery. Animals underwent a hemi-orchiectomy at the end of treatment, which accounts for the 50% reduction in sperm output at the end of recovery. *p<0.05 compared with baseline.
FIG. 1C compares testicular tissue retinoic acid concentration (pmol/g of tissue) in New Zealand white rabbits treated with 200 mg/kg WIN 18,446 daily, orally over time (N=4/group). […] All values are means±SEM. *p<0.05 compared with placebo, **p<0.01.

men = details: cited from earlier work

Compound: O=C(NCCCCCCCCNC(=O)C(Cl)Cl)C(Cl)Cl [WIN 18,446]
- testicular tissue retinoic acid concentration ([1]; 200 mg/kg daily, orally over time): reduction in intra-testicular retinoic acid
- ejaculated sperm concentrations ([1]; 200 mg/kg orally for 16 weeks, 200 mg/kg): reversible azoospermia; also recorded: azoospermic
- sperm concentration (men; at least sixty men, up to one year): below 1 million sperm/ml of ejaculate
- adverse reaction with alcohol (men; men, when they drank alcohol): disulfiram reaction
